Experimental findings from US11304929B2, “Tosylacetate based compounds and derivatives thereof as PHGDH inhibitors” (priority 2017, dated 2022) are described below.

Like-named read-outs stand apart in the source and are kept apart here.

The target in this test is PHGDH (Homo sapiens (Human), UniProt O43175). The test can be described thus: 3-Phosphoglycerate Dehydrogenase (PHGDH) Fluorescence Intensity Assay, run at two NAD/3-PG ratios: PHGDH_HIGH_NAD/3-PG (250 μM NAD/500 μM 3-PG) and PHGDH_500_NAD/3-PG (500 μM NAD/500 μM 3-PG). The test is classed as biochemical.
Chain of PHGDH (O43175 2-533 limits assumed): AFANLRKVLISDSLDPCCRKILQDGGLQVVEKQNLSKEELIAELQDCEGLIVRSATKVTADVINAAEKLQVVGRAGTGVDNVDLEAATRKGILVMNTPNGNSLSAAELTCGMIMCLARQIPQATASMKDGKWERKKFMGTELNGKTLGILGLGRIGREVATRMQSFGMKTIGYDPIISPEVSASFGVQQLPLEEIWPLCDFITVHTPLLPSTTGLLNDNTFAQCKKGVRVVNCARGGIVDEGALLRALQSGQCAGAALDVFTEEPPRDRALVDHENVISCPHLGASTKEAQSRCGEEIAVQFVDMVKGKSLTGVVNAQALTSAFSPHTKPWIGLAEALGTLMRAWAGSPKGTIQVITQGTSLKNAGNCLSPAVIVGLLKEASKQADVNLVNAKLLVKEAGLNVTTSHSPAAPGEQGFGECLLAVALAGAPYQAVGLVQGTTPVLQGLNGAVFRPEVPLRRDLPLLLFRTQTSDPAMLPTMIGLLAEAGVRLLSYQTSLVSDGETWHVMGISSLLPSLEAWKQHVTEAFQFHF
The mark [1] stands for this setting: 250 μM NAD/500 μM 3-PG, read-out: IC50 (PHGDH_HIGH_NAD/3-PG).
Setting [2] is: 500 μM NAD/500 μM 3-PG, read-out: IC50 (PHGDH_500_NAD/3-PG).

From the text: This assay is used to identify compounds which inhibit the enzymatic activity of PHGDH which catalyzes the reaction of 3-Phosphoglycerate (3-PG) and NAD to 3-Phosphohydroxypyruvate and NADH.
The produced NADH is used in a coupled reaction for Diaphorase mediated reduction of Resazurin to Resorufin which can be measured in a Fluorescence Intensity readout.
The full length version of PHGDH enzyme was expressed in E. coli with an N-terminal HIS-tag and a TEV cleavage site.
The 3-Phosphoglycerate substrate was purchased from Sigma. NAD, Diaphorase and Resazurin were purchased from Sigma Aldrich.
Compounds are dispensed onto assay plates (black, low volume, flat bottom 384 well, Corning) using an Access Labcyte Workstation with the Labcyte Echo 55× from a DMSO solution. For the chosen highest assay concentration of 100 μM, 150 nl of compound solution are transferred from a 10 mM DMSO compound stock solution. A series of 11 concentrations (10 1:5 steps) is transferred for each compound.
The assay has been performed at two different NAD/3-PG ratios (final assay concentrations):
Plates are kept at room temperature. After 240 minutes incubation time the fluorescence signal is measured in a PerkinElmer Envision HTS Multilabel Reader with an excitation wavelength at 530-560 nm and an emission wavelength at 590 nm.
Each plate contains negative controls (diluted DMSO instead of test compound; reaction as described with PHGDH protein) and positive controls (diluted DMSO instead of test compound; reaction as described with buffer instead of PHGDH protein). Negative and positive control values are used for normalization.
IC50 values are calculated and analyzed in the MEGALAB IC50 application using a 4 parametric logistic model.

`COC(=O)C[S+]([O-])c1ccc([C@@H](CO)NC(=O)c2cc3c(Cl)c(Cl)c(C)cc3n2C)cc1` (stereo partly drawn) [Example 11-004, methyl 2-{4-[(1S)-1-[(4,5-dichloro-1,6-dimethyl-1H-indol-2-yl)formamido]-2-hydroxyethyl]benzenesulfinyl}acetate]: the IC50 came to 98 nM under setting [1] and 196 nM under setting [2].

Take `COC(=O)C[S+]([O-])c1ccc([C@@H](CO)NC(=O)c2cc3c(Cl)cc(C)cc3n2C)cc1` (stereo partly drawn) [Example 11-005, methyl 2-{4-[(1S)-1-[(4-chloro-1,6-dimethyl-1H-indol-2-yl)formamido]-2-hydroxyethyl]benzenesulfinyl}acetate]: under setting [1], the IC50 was 221 nM.

Regarding `COC(=O)C[S@@+]([O-])c1ccc([C@@H](C)NC(=O)c2cc3c(Cl)cc(C)cc3n2C)cc1` [Example 11-006, methyl 2-[(R)-4-[(1R)-1-[(4-chloro-1,6-dimethyl-1H-indol-2-yl)formamido]ethyl]benzenesulfinyl]acetate], the IC50 under setting [1] was found to be 1120 nM.

For `COC(=O)C[S@+]([O-])c1ccc([C@@H](C)NC(=O)c2cc3c(Cl)cc(C)cc3n2C)cc1` [Example 11-007, methyl 2-[(S)-4-[(1R)-1-[(4-chloro-1,6-dimethyl-1H-indol-2-yl)formamido]ethyl]benzenesulfinyl]acetate], the IC50 under setting [1] was determined as 234 nM.

Regarding `COC(=O)C[S@+]([O-])c1ccc([C@@H](CO)NC(=O)c2cc3c(Cl)cc(C)cc3n2C)cc1` [Example 11-008, methyl 2-[(S)-4-[(1S)-1-[(4-chloro-1,6-dimethyl-1H-indol-2-yl)formamido]-2-hydroxyethyl]benzenesulfinyl]acetate], the IC50 under setting [1] was 120 nM.

Take `COC(=O)C[S+]([O-])c1ccc([C@@H](C)NC(=O)c2cc3c(Cl)cc(C)cc3n2C)cc1` (stereo partly drawn) [Example 11-009, methyl 2-{4-[(1R)-1-[(4-chloro-1,6-dimethyl-1H-indol-2-yl)formamido]ethyl]benzenesulfinyl}acetate]: the IC50 under setting [1] was 612 nM.

Consider `COC(=O)C[S@@+]([O-])c1ccc([C@@H](CO)NC(=O)c2cc3c(Cl)cc(C)cc3n2C)cc1` [Example 11-010, methyl 2-[(R)-4-[(1S)-1-[(4-chloro-1,6-dimethyl-1H-indol-2-yl)formamido]-2-hydroxyethyl]benzenesulfinyl]acetate], for which, under setting [1], the IC50 is 447 nM.

In the case of `Cc1cc2c(cc(C(=O)N[C@H](CO)c3ccc([S@@+]([O-])CC(=O)O)cc3)n2C)c(Cl)c1Cl` [Example 12-001, 2-[(S)-4-[(1S)-1-[(4,5-dichloro-1,6-dimethyl-1H-indol-2-yl)formamido]-2-hydroxyethyl]benzenesulfinyl]acetic acid], the IC50 is, setting by setting: under setting [1], 7 nM; under setting [2], 9 nM.

In the case of `Cc1cc2c(cc(C(=O)N[C@H](CO)c3ccc([S@+]([O-])CC(=O)O)cc3)n2C)c(Cl)c1Cl` [Example 12-002, 2-[(R)-4-[(1S)-1-[(4,5-dichloro-1,6-dimethyl-1H-indol-2-yl)formamido]-2-hydroxyethyl]benzenesulfinyl]acetic acid], the IC50 is 3 nM under setting [1] and 4 nM under setting [2].

Consider `Cc1cc2c(cc(C(=O)N[C@H](CO)c3ccc([S+]([O-])CC(=O)O)cc3)n2C)c(Cl)c1Cl` (stereo partly drawn) [Example 12-003, 2-{4-[(1S)-1-[(4,5-dichloro-1,6-dimethyl-1H-indol-2-yl)formamido]-2-hydroxyethyl]benzenesulfinyl}acetic acid], for which the IC50 under setting [1] amounted to 3 nM and the IC50 under setting [2] is 5 nM.

In the case of `Cc1cc(Cl)c2cc(C(=O)N[C@H](C)c3ccc([S+]([O-])CC(=O)O)cc3)n(C)c2c1` (stereo partly drawn) [Example 12-004, 2-{4-[(1R)-1-[(4-chloro-1,6-dimethyl-1H-indol-2-yl)formamido]ethyl]benzenesulfinyl}acetic acid], the IC50 is, setting by setting: under setting [1], 11 nM; under setting [2], 18 nM.

Regarding `Cc1cc(Cl)c2cc(C(=O)N[C@H](C)c3ccc([S@+]([O-])CC(=O)O)cc3)n(C)c2c1` [Example 12-005, 2-[(R)-4-[(1R)-1-[(4-chloro-1,6-dimethyl-1H-indol-2-yl)formamido]ethyl]benzenesulfinyl]acetic acid], the IC50 was determined as 17 nM under setting [1] and 28 nM under setting [2].
